Data on five molecules can be found in patent US20140242595A1, “HEPATOCYTE PRODUCTION VIA FORWARD PROGRAMMING BY COMBINED GENETIC AND CHEMICAL ENGINEERING” (Cellular Dynamics International, Inc., priority 2013, published 2014).

For assay [1], the system named is MEK. The conditions noted are these: Bain et al., 2007; cited from earlier work.
Assay [2] concerns human rtTET-expressing ESCs transfected with GFH, H1AM and TBX3. The assay is described as follows: Hepatic programming efficiency by albumin (ALB) flow analysis. The class given is cell-based. The conditions noted are these: for % ALB-expressing cells (hepatic programming efficiency): 0.5 μM, alone, added along with doxycycline day 1 to day 7 post-plating, FIG. 6. The text has this: Genes that are either implicated in hepatic differentiation during normal mammalian development or enriched in adult hepatocytes were cloned into the PiggyBac vector (FIG. 3) under the control of the […] promoter (Table 1). To find transcription factors that are able to directly impose mature hepatic fate upon human ESCs, various combinations of transgene-expressing PiggyBac vectors along with the hPBase-expressing vector were introduced into the human ESCs having constitutive expression of rtTET through nucleofection (Minis Ingenio Electroporation solution: cat#MIR50114; program: Amaxa B-016). Nucleofected human ESCs were cultured on matrigel in mTeSR1 (Stem Cell Technologies). Following geneticin (100 μg/ml) selection for stable genomic transgene integration (cells were passaged at lease once prior to differentiation), human ESCs were individualized by accutase treatment and plated to matrigel-coated 12-well plates. […] Where appropriate, small molecules, such as MEK inhibitor PD0325901, TGFβ kinase/activin receptor like kinase (ALK5) inhibitor A 83-01, and an analogue of the natural signaling molecule cyclic AMP 8-Bromoadenosine 3',5'-cyclic monophosphate (8-Br-cAMP), were added during hepatic programming. To determine the effect of MEK inhibitor PD0325901 (P) and TGFβ kinase/activin receptor like kinase (ALK5) inhibitor A 83-01 (A) on hepatic programming efficiency, human rtTET-expressing ESCs transfected with […] and TBX3 were plated on matrigel-coated 12-well plates at about 0.2×10^6 cells/well in mTeSR supplemented with 10 μM HA100 on day 0. […] Cells were collected for albumin (ALB) flow analysis on day 13 post-plating. […] Transfected cells were plated on matrigel-coated 12-well plates at about 0.2×10^6 cells/well in mTeSR supplemented with 10 μM HA100 on day 0. […] Cells were collected for ALB flow analysis on day 12 post-plating. […] With transgene expression, hepatocyte-like cells with polygonal shapes, distinct nuclei, and tight cell-cell contacts were readily observed. To determine the effect of cyclic AMP analog 8-Br-cAMP on hepatic programming, human rtTET-expressing ESCs transfected with […] and TBX3 were plated on matrigel-coated 12-well plates at about 0.2×10^6 cells/well in mTeSR supplemented with 10 μM HA100 on day 0. […] Cells were collected for ALB flow analysis on day 13 post-plating.

`O=C(NOCC1CC1)c1ccc(F)c(F)c1Nc1ccc(I)cc1Cl` [PD184352]: the “specificity and potency compared to other known MEK inhibitors” value in assay [1] was “high degree of specificity and potency”. Consider `Cc1cccc(-c2nn(C(=S)Nc3ccccc3)cc2-c2ccnc3ccccc23)n1` [A 83-01], for which, in assay [2] (ALB flow analysis day 13), the “% ALB-expressing cells (hepatic programming efficiency)” value is on record as “significantly improves”. With `Nc1ncnc2c1nc(Br)n2[C@@H]1O[C@@H]2COP(=O)(O)O[C@H]2[C@H]1O` [8-Br-cAMP, 8-Bromoadenosine 3′,5′-cyclic monophosphate], the “saturation concentration for improved hepatic programming” value in assay [2] (added from day 7 after removal of doxycycline, P and A, ALB flow analysis day 13, FIG. 8) is roughly 200 µM. The “hepatic programming (ALB flow analysis)” value in assay [2] (different concentrations added from day 7 after removal of doxycycline, P and A, ALB flow analysis day 13, FIG. 8) was “significantly improved”. For `O=C(NOC[C@H](O)CO)c1ccc(F)c(F)c1Nc1ccc(I)cc1F` [PD0325901], the “% ALB-expressing cells (hepatic programming efficiency)” value in assay [2] (ALB flow analysis day 13) is recorded as “significantly improves”. Consider `C[C@H]1c2cccc(O)c2C(=O)C2=C(O)[C@]3(O)C(=O)C(C(N)=O)=C(O)[C@@H](N(C)C)[C@@H]3[C@@H](O)[C@@H]21` [Doxycycline], for which the “optimal time window for transgene induction for hepatic programming” value in assay [2] (doxycycline 1 μg/ml with P and A for 0, 2, 4, 6, 8 or 10 days, ALB flow analysis day 12, FIG. 7A) is listed as 4 days.
